Numbered stars: 1 amine (or outer) side, 2 acyl side, 3 side chain; on linkers, the order of the positions; unused ones are H or OH. Square brackets hold non-standard residues; d marks the D form. Side chains are listed from the residue outwards. Peptide text beside a SMILES is read from it. * marks the point of attachment. C20 diacid = O=C(O)CCCCCCCCCCCCCCCCCCC(=O)*; C18 diacid = O=C(O)CCCCCCCCCCCCCCCCC(=O)*; αMePhe(2-F) = C[C@](N)(Cc1ccccc1F)C(=O)O; γGlu = O=C(O)[C@H](CCC(=O)[*:2])N[*:1]; αMeF = C[C@](N)(Cc1ccccc1)C(=O)O; 3Pal = N[C@@H](Cc1cccnc1)C(=O)O; 4Pal = N[C@@H](Cc1ccncc1)C(=O)O; αMeL = CC(C)C[C@](C)(N)C(=O)O; AEEA = NCCOCCOCC(=O)O; Aib = CC(C)(N)C(=O)O
Assays:
[1] = molecular target: T1, human Gcg receptor (Homo sapiens, UniProt P47871); experiment: [125I]-Glucagon binding (SPA), human Gcg receptor; settings: read-out: hGLcgR Ki, nM (SEM, n)
T1 construct: expressed in transfected cells; crude membranes
T1 sequence (P47871 26-477): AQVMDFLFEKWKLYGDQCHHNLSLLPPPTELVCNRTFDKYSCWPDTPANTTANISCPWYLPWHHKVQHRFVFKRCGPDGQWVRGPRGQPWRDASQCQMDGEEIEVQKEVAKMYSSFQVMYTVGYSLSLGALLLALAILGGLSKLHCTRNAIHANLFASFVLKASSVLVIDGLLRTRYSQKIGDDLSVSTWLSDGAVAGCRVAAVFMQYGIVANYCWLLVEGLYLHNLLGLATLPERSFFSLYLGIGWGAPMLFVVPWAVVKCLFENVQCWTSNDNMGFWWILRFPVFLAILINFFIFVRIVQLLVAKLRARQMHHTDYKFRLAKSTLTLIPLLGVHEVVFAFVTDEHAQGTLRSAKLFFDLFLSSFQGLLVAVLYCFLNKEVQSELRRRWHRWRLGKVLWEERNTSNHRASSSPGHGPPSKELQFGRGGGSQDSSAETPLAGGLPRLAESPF
Method: (§1) Two methods are used for the preparation of crude cell membranes.
(§2) Method 1: Frozen cell pellets are lysed on ice in hypotonic buffer containing 50 mM Tris HCl, pH 7.5, and Roche Complete™ Protease Inhibitors with EDTA. The cell suspension is disrupted using a glass Potter-Elvehjem homogenizer fitted with a Teflon® pestle for 25 strokes. The homogenate is centrifuged at 4° C. at 1100×g for 10 minutes. The supernatant is collected and stored on ice while the pellets are resuspended in homogenization buffer and rehomogenized as described above. The homogenate is centrifuged at 1100×g for 10 minutes. The second supernatant is combined with the first supernatant and centrifuged at 35000×g for 1 hour at 4° C. The resulting membrane pellet is resuspended in homogenization buffer containing protease inhibitors at approximately 1 to 3 mg/mL, quick frozen in liquid nitrogen and stored as aliquots in a−80° C. freezer until use.
(§3) Method 2: Frozen cell pellets are lysed on ice in hypotonic buffer containing 50 mM Tris HCl, pH 7.5, 1 mM MgCl2, Roche Complete™ EDTA-free Protease Inhibitors and 25 units/ml DNAse I (Invitrogen). The cell suspension is disrupted using a glass Potter-Elvehjem homogenizer fitted with a Teflon® pestle for 20 to 25 strokes. The homogenate is centrifuged at 4° C. at 1800×g for 15 minutes. The supernatant is collected and stored on ice while the pellets are resuspended in homogenization buffer (without DNAse I) and rehomogenized as described above. The homogenate is centrifuged at 1800×g for 15 minutes. The second supernatant is combined with the first supernatant and centrifuged an additional time at 1800×g for 15 minutes. The overall supernatant is then centrifuged at 25000×g for 30 minutes at 4° C. The resulting membrane pellet is resuspended in homogenization buffer (without DNAse I) containing protease inhibitors at approximately 1 to 3 mg/mL and stored as aliquots in a−80° C. freezer until use.
The human Gcg receptor binding assays are performed using a Scintillation Proximity Assay (SPA) format with wheat germ agglutinin (WGA) beads (Perkin Elmer). The binding buffer contains 25 mM 4-(2-hydroxyethyl)-1-piperazineethanesulfonic acid (HEPES), pH 7.4, 2.5 mM CaCl2, 1 mM MgCl2, 0.1% (w/v) bacitracin (Research Products), 0.003% (w/v) Polyoxyethylenesorbitan monolaurate (TWEEN©-20), and Roche Complete™ Protease Inhibitors without EDTA. […] Plates are sealed and mixed on a plate shaker (setting 6) for 1 minute and read with a PerkinElmer Trilux MicroBeta© scintillation counter after 12 hours of incubation/settling time at room temperature.
(§4) Data are analyzed using four-parameter (curve maximum, curve minimum, IC50, Hill slope) nonlinear regression routines (Genedata Screener, version 12.0.4, Genedata AG, Basal, Switzerland). […] Values for Ki are reported as the geometric mean, with error expressed as the standard error of the mean (SEM) and n is equal to the number of independent replicates (determined in assays performed on different days). […] The Ki Ratio is a rapid indication of the apparent affinity of a peptide compared to the native control peptide. […] SEM is only calculated when n=2 or greater non-qualified results exist. Means are expressed as GeoMetric means with the standard error of the mean (SEM) and the number of replicates (n) indicated in parenthesis.

[2] = molecular target: T2, human GIP receptor (Homo sapiens, UniProt P48546); experiment: [125I]-GIP binding (SPA), human GIP receptor; settings: read-out: hGIPR Ki, nM (SEM, n)
T2 construct: expressed in transfected cells; crude membranes
T2 sequence (P48546 22-466): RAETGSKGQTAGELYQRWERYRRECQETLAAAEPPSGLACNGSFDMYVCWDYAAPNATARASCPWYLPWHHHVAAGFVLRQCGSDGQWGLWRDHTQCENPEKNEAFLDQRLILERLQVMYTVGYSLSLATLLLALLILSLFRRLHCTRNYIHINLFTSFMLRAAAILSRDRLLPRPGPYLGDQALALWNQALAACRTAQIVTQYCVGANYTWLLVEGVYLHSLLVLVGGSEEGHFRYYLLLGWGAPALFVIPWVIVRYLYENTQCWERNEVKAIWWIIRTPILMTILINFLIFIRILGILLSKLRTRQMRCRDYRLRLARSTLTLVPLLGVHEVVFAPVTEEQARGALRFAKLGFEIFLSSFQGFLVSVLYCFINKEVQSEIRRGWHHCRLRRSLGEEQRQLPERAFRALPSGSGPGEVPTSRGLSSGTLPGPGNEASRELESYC
Method: as §1, §2, §3
The binding buffer contains 25 mM HEPES, pH 7.4, 2.5 mM CaCl2, 1 mM MgCl2, 0.1% (w/v) bacitracin, 0.003% (w/v) TWEEN©-20, and Roche Complete™ Protease Inhibitors without EDTA. Peptides and GIP are thawed and 3 fold serially diluted in 100% DMSO (10 point concentration response curves). […] Plates are sealed and mixed on a plate shaker (setting 6) for 1 minute and read with a PerkinElmer Trilux MicroBeta© scintillation counter after 2.5 to 12 hours of incubation/settling time at room temperature.
as §4

[3] = molecular target: human GLP-1 receptor (GLP-1R) (Homo sapiens, UniProt P43220); experiment: cAMP pharmacological functional assay in presence of casein, hGLP-1R; assay type: cell-based; settings: HEK293 cells expressing hGLP-1R, 0.1% Casein, geometric mean; read-out: hGLP1R cAMP Rel EC50 nM (SEM, n)
Chain of human GLP-1 receptor (GLP-1R) (P43220 24-463): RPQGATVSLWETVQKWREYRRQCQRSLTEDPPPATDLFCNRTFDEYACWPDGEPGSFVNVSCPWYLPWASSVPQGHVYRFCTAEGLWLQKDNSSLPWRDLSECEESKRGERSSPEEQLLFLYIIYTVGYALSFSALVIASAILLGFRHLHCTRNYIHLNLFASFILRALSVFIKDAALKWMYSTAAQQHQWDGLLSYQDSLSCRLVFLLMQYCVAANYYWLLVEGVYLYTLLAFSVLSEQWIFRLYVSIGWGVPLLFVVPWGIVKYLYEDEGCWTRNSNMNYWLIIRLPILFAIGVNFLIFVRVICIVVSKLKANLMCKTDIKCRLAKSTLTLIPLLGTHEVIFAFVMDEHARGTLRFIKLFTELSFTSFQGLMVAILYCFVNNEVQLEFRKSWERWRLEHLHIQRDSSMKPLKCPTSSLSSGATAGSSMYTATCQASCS

[4] = molecular target: T3, gastric inhibitory peptide receptor (GIPR) (Homo sapiens, UniProt P48546); experiment: cAMP pharmacological functional assay in presence of casein, hGIPR; assay type: cell-based; settings: HEK293 cells expressing hGIPR, 0.1% Casein, geometric mean; read-out: hGIPR cAMP Rel EC50 nM (SEM, n)
T3 sequence (P48546 22-466): T2 sequence (P48546 22-466)

[5] = molecular target: human GLP-1R (Homo sapiens, UniProt P43220); experiment: [125I]-GLP-1 binding (SPA), human GLP-1 receptor; design: expressed in transfected cells; crude membranes; settings: read-out: hGLP1R Ki, (nM) (SEM, n)
Chain of human GLP-1R (P43220 24-463): as above
Method: as §1, §2, §3
The binding buffer contains 25 mM HEPES, pH 7.4, 2.5 mM CaCl2, 1 mM MgCl2, 0.1% (w/v) bacitracin, 0.003% (w/v) TWEEN©-20, and Roche Complete™ Protease Inhibitors without EDTA.
as §4

Structure (SMILES) | Ki [1] [nM] | Ki [2] [nM] | EC50 [3] [nM] | EC50 [4] [nM] | Ki [5] [nM]
CC[C@H](C)[C@H](NC(=O)[C@H](CC(C)C)NC(=O)[C@H](Cc1ccc(O)cc1)NC(=O)[C@H](CCC(=O)O)NC(=O)[C@@H](NC(=O)[C@H](Cc1ccccc1)NC(=O)[C@@H](NC(=O)C(C)(C)NC(=O)[C@H](CCC(N)=O)NC(=O)[C@H](C)NC(=O)[C@H](CCCCNC(=O)COCCOCCNC(=O)COCCOCCNC(=O)CC[C@H](NC(=O)CCCCCCCCCCCCCCCCCCC(=O)O)C(=O)O)NC(=O)[C@H](CCCCN)NC(=O)[C@H](CC(=O)O)NC(=O)[C@H](CC(C)C)NC(=O)[C@](C)(CC(C)C)NC(=O)[C@@H](NC(=O)[C@H](CO)NC(=O)[C@H](Cc1ccc(O)cc1)NC(=O)[C@H](CC(=O)O)NC(=O)[C@H](CO)NC(=O)[C@@H](NC(=O)[C@](C)(Cc1ccccc1)NC(=O)[C@@H](NC(=O)CNC(=O)[C@H](CCC(=O)O)NC(=O)C(C)(C)NC(=O)[C@@H](N)Cc1ccc(O)cc1)[C@@H](C)O)[C@@H](C)O)[C@@H](C)CC)[C@@H](C)O)[C@@H](C)CC)C(=O)N[C@@H](CCC(=O)O)C(=O)NCC(=O)NCC(=O)N1CCC[C@H]1C(=O)N[C@@H](CO)C(=O)N[C@@H](CO)C(=O)NCC(=O)N[C@@H](C)C(=O)N1CCC[C@H]1C(=O)N1CCC[C@H]1C(=O)N1CCC[C@H]1C(=O)N[C@@H](CO)C(N)=O [Example 139] (H-Y[Aib]EGT[αMeF]TSDYSI[αMeL]LDKK([AEEA-AEEA-γGlu-C20 diacid])AQ[Aib]TFIEYLIEGGPSSGAPPPS-NH2) | 105 | 0.036 | 0.0417 | 0.037 | –
CC[C@H](C)[C@H](NC(=O)[C@H](CC(C)C)NC(=O)[C@H](Cc1ccc(O)cc1)NC(=O)[C@@H](CCC(=O)O)NC(=O)[C@@H](NC(=O)[C@H](Cc1ccccc1)NC(=O)[C@H](CCC(=O)O)NC(=O)C(C)(C)NC(=O)[C@H](CCC(N)=O)NC(=O)[C@H](C)NC(=O)[C@H](CCCCNC(=O)COCCOCCNC(=O)COCCOCCNC(=O)CC[C@H](NC(=O)CCCCCCCCCCCCCCCCCCC(=O)O)C(=O)O)NC(=O)[C@H](CCC(=O)O)NC(=O)[C@H](CC(=O)O)NC(=O)[C@H](CC(C)C)NC(=O)[C@](C)(CC(C)C)NC(=O)[C@@H](NC(=O)[C@H](CO)NC(=O)[C@H](Cc1cccnc1)NC(=O)[C@H](CC(=O)O)NC(=O)[C@H](CO)NC(=O)[C@@H](NC(=O)[C@](C)(Cc1ccccc1F)NC(=O)[C@@H](NC(=O)CNC(=O)[C@H](CCC(=O)O)NC(=O)C(C)(C)NC(=O)[C@@H](N)Cc1ccc(O)cc1)[C@@H](C)O)[C@@H](C)O)[C@@H](C)CC)[C@@H](C)CC)C(=O)N[C@@H](CCC(=O)O)C(=O)NCC(=O)NCC(=O)N1CCC[C@H]1C(=O)N[C@@H](CO)C(=O)N[C@@H](CO)C(=O)NCC(=O)N[C@@H](C)C(=O)N1CCC[C@H]1C(=O)N1CCC[C@H]1C(=O)N1CCC[C@H]1C(=O)N[C@@H](CO)C(N)=O [Example 181] (H-Y[Aib]EGT[αMePhe(2-F)]TSD[3Pal]SI[αMeL]LDEK([AEEA-AEEA-γGlu-C20 diacid])AQ[Aib]EFI[dE]YLIEGGPSSGAPPPS-NH2) | 413 | 0.145 | – | – | 7.28
CC[C@H](C)[C@H](NC(=O)[C@H](CC(C)C)NC(=O)[C@H](Cc1ccc(O)cc1)NC(=O)[C@@H](CCC(=O)O)NC(=O)[C@@H](NC(=O)[C@H](Cc1ccccc1)NC(=O)[C@H](CCC(=O)O)NC(=O)C(C)(C)NC(=O)[C@H](CCC(N)=O)NC(=O)[C@H](C)NC(=O)[C@H](CCCCNC(=O)COCCOCCNC(=O)COCCOCCNC(=O)CC[C@H](NC(=O)CCCCCCCCCCCCCCCCCCC(=O)O)C(=O)O)NC(=O)[C@H](CCC(=O)O)NC(=O)[C@H](CC(=O)O)NC(=O)[C@H](CC(C)C)NC(=O)[C@](C)(CC(C)C)NC(=O)[C@@H](NC(=O)[C@H](CO)NC(=O)[C@H](Cc1ccncc1)NC(=O)[C@H](CC(=O)O)NC(=O)[C@H](CO)NC(=O)[C@@H](NC(=O)[C@](C)(Cc1ccccc1F)NC(=O)[C@@H](NC(=O)CNC(=O)[C@H](CCC(=O)O)NC(=O)C(C)(C)NC(=O)[C@@H](N)Cc1ccc(O)cc1)[C@@H](C)O)[C@@H](C)O)[C@@H](C)CC)[C@@H](C)CC)C(=O)N[C@@H](CCC(=O)O)C(=O)NCC(=O)NCC(=O)N1CCC[C@H]1C(=O)N[C@@H](CO)C(=O)N[C@@H](CO)C(=O)NCC(=O)N[C@@H](C)C(=O)N1CCC[C@H]1C(=O)N1CCC[C@H]1C(=O)N1CCC[C@H]1C(=O)N[C@@H](CO)C(N)=O [Example 182] (H-Y[Aib]EGT[αMePhe(2-F)]TSD[4Pal]SI[αMeL]LDEK([AEEA-AEEA-γGlu-C20 diacid])AQ[Aib]EFI[dE]YLIEGGPSSGAPPPS-NH2; N-terminus assumed) | 565 | 0.0669 | – | 0.0442 | 4.64
CC[C@H](C)[C@H](NC(=O)[C@H](CC(C)C)NC(=O)[C@H](Cc1ccc(O)cc1)NC(=O)[C@@H](CCC(=O)O)NC(=O)[C@@H](NC(=O)[C@H](Cc1ccccc1)NC(=O)[C@H](CCC(=O)O)NC(=O)C(C)(C)NC(=O)[C@H](CCC(N)=O)NC(=O)[C@H](C)NC(=O)[C@H](CCCCNC(=O)COCCOCCNC(=O)COCCOCCNC(=O)CC[C@H](NC(=O)CCCCCCCCCCCCCCCCC(=O)O)C(=O)O)NC(=O)[C@H](CCC(=O)O)NC(=O)[C@H](CC(=O)O)NC(=O)[C@H](CC(C)C)NC(=O)[C@](C)(CC(C)C)NC(=O)[C@@H](NC(=O)[C@H](CO)NC(=O)[C@H](Cc1ccncc1)NC(=O)[C@H](CC(=O)O)NC(=O)[C@H](CO)NC(=O)[C@@H](NC(=O)[C@](C)(Cc1ccccc1F)NC(=O)[C@@H](NC(=O)CNC(=O)[C@H](CCC(=O)O)NC(=O)C(C)(C)NC(=O)[C@@H](N)Cc1ccc(O)cc1)[C@@H](C)O)[C@@H](C)O)[C@@H](C)CC)[C@@H](C)CC)C(=O)N[C@@H](CCC(=O)O)C(=O)NCC(=O)NCC(=O)N1CCC[C@H]1C(=O)N[C@@H](CO)C(=O)N[C@@H](CO)C(=O)NCC(=O)N[C@@H](C)C(=O)N1CCC[C@H]1C(=O)N1CCC[C@H]1C(=O)N1CCC[C@H]1C(=O)N[C@@H](CO)C(N)=O [Example 204] (H-Y[Aib]EGT[αMePhe(2-F)]TSD[4Pal]SI[αMeL]LDEK([AEEA-AEEA-γGlu-C18 diacid])AQ[Aib]EFI[dE]YLIEGGPSSGAPPPS-NH2) | > 1150 | 0.0704 | 0.0654 | 0.0424 | –

— patent publication US12252524B2, “GIP/GLP1 co-agonist compounds” (Eli Lilly and Company, priority 2018, dated 2025)
